Data: patent publication US10533000B2, “Metabotrophic glutamate receptor 5 modulators and methods of use thereof” (Sunovion Pharmaceuticals, Inc., priority 2011, dated 2020)
pEC50: −log10 of the molar value.

These compounds were tested against mGluR5 (Homo sapiens, UniProt P41594) (assay: mGluR5 positive allosteric modulator (PAM) functional assay).
Type: cell-based

Chain of mGluR5 (P41594 21-1212): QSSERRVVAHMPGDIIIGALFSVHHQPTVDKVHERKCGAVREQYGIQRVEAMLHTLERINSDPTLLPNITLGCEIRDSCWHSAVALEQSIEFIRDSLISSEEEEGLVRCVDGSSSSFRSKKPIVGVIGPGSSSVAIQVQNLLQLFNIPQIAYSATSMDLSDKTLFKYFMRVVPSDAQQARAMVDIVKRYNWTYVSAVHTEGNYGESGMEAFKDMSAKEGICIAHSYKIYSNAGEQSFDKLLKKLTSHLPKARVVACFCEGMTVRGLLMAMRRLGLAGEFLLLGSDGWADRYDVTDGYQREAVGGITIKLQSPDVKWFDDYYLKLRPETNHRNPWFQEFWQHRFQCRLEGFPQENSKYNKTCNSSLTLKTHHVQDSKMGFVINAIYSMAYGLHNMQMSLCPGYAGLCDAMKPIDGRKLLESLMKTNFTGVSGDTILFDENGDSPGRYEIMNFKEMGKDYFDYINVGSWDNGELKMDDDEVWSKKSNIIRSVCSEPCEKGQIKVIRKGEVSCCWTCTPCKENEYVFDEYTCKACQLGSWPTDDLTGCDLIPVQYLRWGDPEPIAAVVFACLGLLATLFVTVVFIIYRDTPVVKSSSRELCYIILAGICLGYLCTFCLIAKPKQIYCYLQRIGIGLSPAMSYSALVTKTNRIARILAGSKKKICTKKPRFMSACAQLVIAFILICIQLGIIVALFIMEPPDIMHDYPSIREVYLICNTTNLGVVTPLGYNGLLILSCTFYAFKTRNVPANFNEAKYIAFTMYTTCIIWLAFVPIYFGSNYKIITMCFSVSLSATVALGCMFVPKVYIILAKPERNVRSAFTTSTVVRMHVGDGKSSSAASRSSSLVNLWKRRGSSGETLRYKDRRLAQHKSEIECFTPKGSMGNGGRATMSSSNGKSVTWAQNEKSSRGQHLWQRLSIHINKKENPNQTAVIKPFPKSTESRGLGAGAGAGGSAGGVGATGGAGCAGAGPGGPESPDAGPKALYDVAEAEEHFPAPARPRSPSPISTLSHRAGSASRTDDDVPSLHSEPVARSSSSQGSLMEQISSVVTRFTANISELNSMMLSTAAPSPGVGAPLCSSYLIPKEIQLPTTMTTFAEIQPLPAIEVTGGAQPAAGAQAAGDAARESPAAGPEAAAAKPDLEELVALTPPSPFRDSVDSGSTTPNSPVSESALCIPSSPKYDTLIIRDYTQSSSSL

Structure (SMILES) | pEC50
CC1(c2nc(-c3ccc(C#Cc4cccc(F)c4)cn3)no2)CCCN1 (centres unmarked) [Compound 122, 3-(5-((3-fluorophenyl)ethynyl)pyridin-2-yl)-5-(2-methylpyrrolidin-2-yl)-1,2,4-oxadiazole] | 6.52 to 7.00
Fc1cccc(C#Cc2ccc(-c3noc(C4CCCN4CCC(F)(F)F)n3)nc2)c1 (centres unmarked) [Compound 123, 3-(5-((3-fluorophenyl)ethynyl)pyridin-2-yl)-5-(1-(3,3,3-trifluoropropyl)pyrrolidin-2-yl)-1,2,4-oxadiazole] | ≥ 7.52
C#CCN1CCCC1c1nc(-c2ccc(C#Cc3cccc(F)c3)cn2)no1 (centres unmarked) [Compound 124, 3-(5-((3-fluorophenyl)ethynyl)pyridin-2-yl)-5-(1-(prop-2-yn-1-yl)pyrrolidin-2-yl)-1,2,4-oxadiazole] | ≥ 7.52
N#CCN1CCCC1c1nc(-c2ccc(C#Cc3cccc(F)c3)cn2)no1 (centres unmarked) [Compound 125, 2-(2-(3-(5-((3-fluorophenyl)ethynyl)pyridin-2-yl)-1,2,4-oxadiazol-5-yl)pyrrolidin-1-yl)acetonitrile] | 7.00 to 7.52
Fc1cccc(C#Cc2ccc(-c3noc(C4CCCN4C4CCC4)n3)nc2)c1 (centres unmarked) [Compound 126, 5-(1-cyclobutylpyrrolidin-2-yl)-3-(5-((3-fluorophenyl)ethynyl)pyridin-2-yl)-1,2,4-oxadiazole] | 7.00 to 7.52
C=C1CN[C@H](c2nc(-c3ccc(C#Cc4cccc(F)c4)cn3)no2)C1 [Compound 127, (S)-3-(5-((3-fluorophenyl)ethynyl)pyridin-2-yl)-5-(4-methylenepyrrolidin-2-yl)-1,2,4-oxadiazole] | 6.52 to 7.00
O[C@H]1CN[C@H](c2nc(-c3ccc(C#Cc4cccc(F)c4)cn3)no2)C1 [Compound 129, (3R,5S)-5-(3-(5-((3-fluorophenyl)ethynyl)pyridin-2-yl)-1,2,4-oxadiazol-5-yl)pyrrolidin-3-ol] | 6.00 to 6.52
CN1C[C@H](O)C[C@H]1c1nc(-c2ccc(C#Cc3cccc(F)c3)cn2)no1 [Compound 130, (3R,5S)-5-(3-(5-((3-fluorophenyl)ethynyl)pyridin-2-yl)-1,2,4-oxadiazol-5-yl)-1-methylpyrrolidin-3-ol] | 7.00 to 7.52
CN1C[C@H](O)C[C@@H]1c1nc(-c2ccc(C#Cc3cccc(F)c3)cn2)no1 [Compound 132, (3R,5R)-5-(3-(5-((3-fluorophenyl)ethynyl)pyridin-2-yl)-1,2,4-oxadiazol-5-yl)-1-methylpyrrolidin-3-ol] | 6.52 to 7.00
CO[C@H]1CN[C@@H](c2nc(-c3ccc(C#Cc4cccc(F)c4)cn3)no2)C1 [Compound 133, 3-(5-((3-fluorophenyl)ethynyl)pyridin-2-yl)-5-((2R,4R)-4-methoxypyrrolidin-2-yl)-1,2,4-oxadiazole] | 7.00 to 7.52
CCC(CC)c1nc(-c2ccc(C#Cc3ccccn3)cn2)no1 [Compound 136, 5-(pentan-3-yl)-3-(5-(pyridin-2-ylethynyl)pyridin-2-yl)-1,2,4-oxadiazole] | ≥ 7.52
CCC(OC)c1nc(-c2ccc(C#Cc3ccccn3)cn2)no1 (centres unmarked) [Compound 138, 5-(1-methoxypropyl)-3-(5-(pyridin-2-ylethynyl)pyridin-2-yl)-1,2,4-oxadiazole] | 6.52 to 7.00
CC(c1nc(-c2ccc(C#Cc3ccccn3)cn2)no1)N1CCCC1(C)C (centres unmarked) [Compound 139, 5-(1-(2,2-dimethylpyrrolidin-1-yl)ethyl)-3-(5-(pyridin-2-ylethynyl)pyridin-2-yl)-1,2,4-oxadiazole] | 7.00 to 7.52
CC(C)NC(C)c1nc(-c2ccc(C#Cc3ccccn3)cn2)no1 (centres unmarked) [Compound 140, N-(1-(3-(5-(pyridin-2-ylethynyl)pyridin-2-yl)-1,2,4-oxadiazol-5-yl)ethyl)propan-2-amine] | 6.52 to 7.00
CC(c1nc(-c2ccc(C#Cc3ccccn3)cn2)no1)N(C)C (centres unmarked) [Compound 143, N,N-dimethyl-1-(3-(5-(pyridin-2-ylethynyl)pyridin-2-yl)-1,2,4-oxadiazol-5-yl)ethanamine] | 6.52 to 7.00
CN(C)C(C)(C)c1nc(-c2ccc(C#Cc3ccccn3)cn2)no1 [Compound 145, N,N-dimethyl-2-(3-(5-(pyridin-2-ylethynyl)pyridin-2-yl)-1,2,4-oxadiazol-5-yl)propan-2-amine] | 7.00 to 7.52
CCOC(=O)NC(CC)c1nc(-c2ccc(C#Cc3ccccn3)cn2)no1 (centres unmarked) [Compound 146, ethyl (1-(3-(5-(pyridin-2-ylethynyl)pyridin-2-yl)-1,2,4-oxadiazol-5-yl)propyl)carbamate] | 6.52 to 7.00
CCC(c1nc(-c2ccc(C#Cc3ccccn3)cn2)no1)N(C)C (centres unmarked) [Compound 148, N,N-dimethyl-1-(3-(5-(pyridin-2-ylethynyl)pyridin-2-yl)-1,2,4-oxadiazol-5-yl)propan-1-amine] | 7.00 to 7.52
CCC(NC1CC1)c1nc(-c2ccc(C#Cc3ccccn3)cn2)no1 (centres unmarked) [Compound 149, N-(1-(3-(5-(pyridin-2-ylethynyl)pyridin-2-yl)-1,2,4-oxadiazol-5-yl)propyl)cyclopropanamine] | 6.00 to 6.52

Second part, the compound after the results:

pEC50 | Structure (SMILES)
7.00 to 7.52 | CCC(C)c1nc(-c2ccc(C#Cc3ccccn3)cn2)no1 (centres unmarked) [Compound 134, 5-(sec-butyl)-3-(5-(pyridin-2-ylethynyl)pyridin-2-yl)-1,2,4-oxadiazole]
7.00 to 7.52 | C(#Cc1ccccn1)c1ccc(-c2noc(C3CCCC3)n2)nc1 [Compound 137, 5-cyclopentyl-3-(5-(pyridin-2-ylethynyl)pyridin-2-yl)-1,2,4-oxadiazole]
7.00 to 7.52 | CC(c1nc(-c2ccc(C#Cc3ccccn3)cn2)no1)N1CCCC1 (centres unmarked) [Compound 142, 3-(5-(pyridin-2-ylethynyl)pyridin-2-yl)-5-(1-(pyrrolidin-1-yl)ethyl)-1,2,4-oxadiazole]
6.00 to 6.52 | CNC(C)(C)c1nc(-c2ccc(C#Cc3ccccn3)cn2)no1 [Compound 144, N-methyl-2-(3-(5-(pyridin-2-ylethynyl)pyridin-2-yl)-1,2,4-oxadiazol-5-yl)propan-2-amine]
6.00 to 6.52 | CN1CCC1c1nc(-c2ccc(C#Cc3ccccn3)cn2)no1 (centres unmarked) [Compound 150, 5-(1-methylazetidin-2-yl)-3-(5-(pyridin-2-ylethynyl)pyridin-2-yl)-1,2,4-oxadiazole]
6.00 to 6.52 | C(#Cc1ccccn1)c1ccc(-c2noc(C3CCCN3)n2)nc1 (centres unmarked) [Compound 151, 3-(5-(pyridin-2-ylethynyl)pyridin-2-yl)-5-(pyrrolidin-2-yl)-1,2,4-oxadiazole]
7.00 to 7.52 | CN1C(c2nc(-c3ccc(C#Cc4ccccn4)cn3)no2)CCC1(C)C (centres unmarked) [Compound 153, 3-(5-(pyridin-2-ylethynyl)pyridin-2-yl)-5-(1,5,5-trimethylpyrrolidin-2-yl)-1,2,4-oxadiazole]
6.00 to 6.52 | CN1CC(F)(F)C[C@@H]1c1nc(-c2ccc(C#Cc3ccccn3)cn2)no1 [Compound 154, (R)-5-(4,4-difluoro-1-methylpyrrolidin-2-yl)-3-(5-(pyridin-2-ylethynyl)pyridin-2-yl)-1,2,4-oxadiazole]
6.52 to 7.00 | CN1CC(F)(F)C[C@H]1c1nc(-c2ccc(C#Cc3ccccn3)cn2)no1 [Compound 155, (S)-5-(4,4-difluoro-1-methylpyrrolidin-2-yl)-3-(5-(pyridin-2-ylethynyl)pyridin-2-yl)-1,2,4-oxadiazole]
6.00 to 6.52 | CN1C[C@@H](F)C[C@@H]1c1nc(-c2ccc(C#Cc3ccccn3)cn2)no1 [Compound 156, 5-((2R,4S)-4-fluoro-1-methylpyrrolidin-2-yl)-3-(5-(pyridin-2-ylethynyl)pyridin-2-yl)-1,2,4-oxadiazole]
